ChEMBL document CHEMBL1201862, “PubChem BioAssay data set” (2004)
Activity calls are given as the source filed them.

What was measured:
[1] = target: Genome polyprotein (dengue virus type 2, UniProt P29990); assay: Dengue-2 NS5 methyltransferase inhibitors, primary screen, biochemical, confirmation dose response (AID 588689); assay type: functional
[2] = target: T1, High affinity choline transporter 1 (Homo sapiens, UniProt Q9GZV3); assay: CHT inhibitors, dose response, cell-based, 5-point CRC, membrane potential dye (AID 504840); assay type: functional
T1 sequence (Q9GZV3 whole entry): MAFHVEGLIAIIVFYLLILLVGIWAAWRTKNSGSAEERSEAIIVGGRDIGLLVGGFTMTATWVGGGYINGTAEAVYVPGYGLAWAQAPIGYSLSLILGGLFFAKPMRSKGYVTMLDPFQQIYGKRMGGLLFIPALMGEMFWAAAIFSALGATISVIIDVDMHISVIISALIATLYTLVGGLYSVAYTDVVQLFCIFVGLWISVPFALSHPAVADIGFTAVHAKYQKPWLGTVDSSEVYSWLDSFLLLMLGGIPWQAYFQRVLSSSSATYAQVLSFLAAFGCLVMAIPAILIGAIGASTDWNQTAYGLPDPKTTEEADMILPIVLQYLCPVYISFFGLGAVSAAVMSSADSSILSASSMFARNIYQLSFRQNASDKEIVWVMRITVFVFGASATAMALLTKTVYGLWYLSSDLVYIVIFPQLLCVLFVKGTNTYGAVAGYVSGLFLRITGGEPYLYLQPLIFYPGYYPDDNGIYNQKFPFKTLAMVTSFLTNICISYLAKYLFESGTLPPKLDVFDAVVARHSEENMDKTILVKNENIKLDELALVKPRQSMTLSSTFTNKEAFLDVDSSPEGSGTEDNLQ

[3] = system: Streptococcus sp. 'group A'; assay: growth inhibition of control SK(-) GAS strain, dose response, counter-screen for streptokinase expression inhibitor project, luminescence, kanamycin, BacTiterGlo, confirmation (AID 1900); assay type: functional, organism-based
[4] = system: Streptococcus; assay: Group A Streptococcus viability loss, dose response, counter-screen for streptokinase expression inhibitor project, luminescence, BacTiterGlo (AID 1915); assay type: functional, organism-based;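 further: potency for reduction of bacterial viability or growth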
[5] = system: Escherichia coli; assay: microbe, parasite or virus in culture
[6] = target: Voltage-dependent T-type calcium channel subunit alpha-1H (Homo sapiens, UniProt O95180); assay type: functional;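 further: channel activity triggered by adding a high calcium stimulation buffer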
[7] = growth suppression of PTEN-null colon cells, dose response, cell-based, HCT116 PTEN knockout (AID 1047); assay type: functional;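 further: HCT116 colon tumor cells with PTEN knocked out; cells exposed to compound for 60 hours before readout; potency for loss of cell viability measured by luminescence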
[8] = growth suppression of beta-catenin-knockout colon cells, dose response, cell-based, HCT116, human colon tumor (AID 1045); assay type: functional;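 further: HCT116 colon tumor cells with beta catenin knocked out; cells exposed to compound for 60 hours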
[9] = target: Cytochrome P450 2C9 (Homo sapiens, UniProt P11712)
[10] = target: T2, Hexokinase (Trypanosoma brucei, UniProt Q38C41); assay: Confirmation assay for inhibitors of Trypanosoma brucei hexokinase 1-Analogue-first series. [Related pubchem assays (depositor defined):AID1430, AID1632, AID2516, AID2560, AID2579, AID2600, AID449725, AID492951]; assay type: functional
T2 sequence (Q38C41 whole entry): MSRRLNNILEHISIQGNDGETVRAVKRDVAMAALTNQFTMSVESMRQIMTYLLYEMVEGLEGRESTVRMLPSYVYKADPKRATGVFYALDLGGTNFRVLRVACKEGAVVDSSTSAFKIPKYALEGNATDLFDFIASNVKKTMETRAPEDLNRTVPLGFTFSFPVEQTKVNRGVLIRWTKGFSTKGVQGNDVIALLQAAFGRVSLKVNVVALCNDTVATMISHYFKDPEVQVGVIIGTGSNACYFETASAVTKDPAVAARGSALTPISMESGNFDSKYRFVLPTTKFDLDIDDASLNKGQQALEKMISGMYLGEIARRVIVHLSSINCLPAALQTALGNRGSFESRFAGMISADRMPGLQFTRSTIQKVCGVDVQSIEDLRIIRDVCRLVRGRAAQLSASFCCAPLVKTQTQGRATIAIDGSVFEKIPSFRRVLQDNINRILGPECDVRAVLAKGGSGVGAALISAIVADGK

[11] = target: T3, Carboxy-terminal domain RNA polymerase II polypeptide A small phosphatase 1 (Homo sapiens, UniProt Q9GZU7); assay: inhibitors of CTDSP1, concentration-response testing, biochemical assay, absorbance-based, actives from ultra-high-throughput screening (AID 540297); assay type: functional
T3 sequence (Q9GZU7 whole entry): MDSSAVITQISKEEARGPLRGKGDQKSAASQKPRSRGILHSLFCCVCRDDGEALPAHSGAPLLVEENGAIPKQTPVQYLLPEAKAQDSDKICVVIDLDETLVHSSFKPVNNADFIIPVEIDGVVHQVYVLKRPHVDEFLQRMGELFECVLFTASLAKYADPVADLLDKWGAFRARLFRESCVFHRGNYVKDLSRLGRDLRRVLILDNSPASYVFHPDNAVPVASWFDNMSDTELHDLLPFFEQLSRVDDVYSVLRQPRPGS

[12] = THP-1 cell cytotoxicity, dose response, cytotoxicity control for non-replicating M. tuberculosis project (AID 489025); assay type: functional
[13] = target: T4, Short transient receptor potential channel 4 (Mus musculus, UniProt Q9QUQ5); assay: mouse TRPC4 channel inhibitors, dose response, cell-based, HEK293 TRPC4/mu-opioid, Fluo-4 calcium (AID 434942); assay type: functional;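 further: potency of inhibitors blocking the TRPC4 calcium response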
T4 sequence (Q9QUQ5 whole entry): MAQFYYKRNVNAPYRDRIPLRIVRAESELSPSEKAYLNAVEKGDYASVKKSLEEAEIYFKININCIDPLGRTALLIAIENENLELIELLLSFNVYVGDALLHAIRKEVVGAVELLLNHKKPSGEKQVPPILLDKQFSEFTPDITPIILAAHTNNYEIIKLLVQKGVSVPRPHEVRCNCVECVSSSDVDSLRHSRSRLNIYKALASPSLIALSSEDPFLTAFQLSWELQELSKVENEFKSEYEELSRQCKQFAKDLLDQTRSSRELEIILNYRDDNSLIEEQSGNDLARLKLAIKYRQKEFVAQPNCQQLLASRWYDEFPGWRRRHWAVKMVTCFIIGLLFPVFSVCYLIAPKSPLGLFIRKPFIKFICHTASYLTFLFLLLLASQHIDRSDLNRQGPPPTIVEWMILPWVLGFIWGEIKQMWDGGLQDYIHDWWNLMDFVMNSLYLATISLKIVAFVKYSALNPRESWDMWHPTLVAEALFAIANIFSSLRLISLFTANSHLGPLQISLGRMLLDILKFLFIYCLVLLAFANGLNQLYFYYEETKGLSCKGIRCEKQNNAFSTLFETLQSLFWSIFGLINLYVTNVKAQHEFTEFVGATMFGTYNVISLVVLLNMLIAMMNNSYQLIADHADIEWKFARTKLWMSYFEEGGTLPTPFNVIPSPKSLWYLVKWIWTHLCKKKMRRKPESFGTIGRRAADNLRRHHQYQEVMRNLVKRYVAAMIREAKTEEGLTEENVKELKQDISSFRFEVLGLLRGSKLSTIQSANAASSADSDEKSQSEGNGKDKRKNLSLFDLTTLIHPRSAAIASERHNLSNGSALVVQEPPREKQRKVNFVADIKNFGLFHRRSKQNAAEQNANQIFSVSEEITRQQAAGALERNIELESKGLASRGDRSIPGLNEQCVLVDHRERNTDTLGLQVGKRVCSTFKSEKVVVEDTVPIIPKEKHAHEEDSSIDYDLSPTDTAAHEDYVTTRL

[14] = target: T5, Heat shock factor protein 1 (Mus musculus, UniProt P38532); assay: HSF1 potentiators in luciferase reporter cells, confirmation, cell-based, NIH3T3, luminescence, dose retest (AID 435004); assay type: functional;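 further: stress induced by proteasome inhibitor MG132 added 30 min after compound; luciferase reporter driven by HSF1 response element in NIH3T3 cells; actives raise luminescence as potentiators of the MG132 stress response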
T5 sequence (P38532 whole entry): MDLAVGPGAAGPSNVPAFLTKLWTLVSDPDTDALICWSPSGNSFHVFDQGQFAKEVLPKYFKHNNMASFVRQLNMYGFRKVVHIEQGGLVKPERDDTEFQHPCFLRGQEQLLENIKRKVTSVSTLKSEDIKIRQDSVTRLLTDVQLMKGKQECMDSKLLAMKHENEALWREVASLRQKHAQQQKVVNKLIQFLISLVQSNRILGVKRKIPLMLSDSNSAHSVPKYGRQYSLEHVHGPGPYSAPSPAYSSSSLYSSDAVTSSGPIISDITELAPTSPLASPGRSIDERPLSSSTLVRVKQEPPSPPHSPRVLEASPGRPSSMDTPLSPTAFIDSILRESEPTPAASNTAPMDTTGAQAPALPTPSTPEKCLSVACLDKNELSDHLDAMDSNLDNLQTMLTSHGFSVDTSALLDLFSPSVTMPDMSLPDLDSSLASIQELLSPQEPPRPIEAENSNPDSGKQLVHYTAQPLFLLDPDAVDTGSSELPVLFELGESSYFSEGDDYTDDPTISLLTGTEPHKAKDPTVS

[15] = HEp-2 cell cytotoxicity, dose response, cytotoxicity control for RSV inhibitor project, HTS (AID 2410); assay type: functional; details: human respiratory syncytial virus
[16] = target: T6, Streptokinase A (Streptococcus pyogenes serotype M1, UniProt P10520); assay: S. pyogenes streptokinase expression inhibitors, potency, dose response, plasminogen activation absorbance, OD405 (AID 1914); assay type: functional, Streptococcus pyogenes M1 GAS;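 further: secreted streptokinase activity via plasminogen activation per viability signal from cell pellet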
T6 sequence (P10520 whole entry): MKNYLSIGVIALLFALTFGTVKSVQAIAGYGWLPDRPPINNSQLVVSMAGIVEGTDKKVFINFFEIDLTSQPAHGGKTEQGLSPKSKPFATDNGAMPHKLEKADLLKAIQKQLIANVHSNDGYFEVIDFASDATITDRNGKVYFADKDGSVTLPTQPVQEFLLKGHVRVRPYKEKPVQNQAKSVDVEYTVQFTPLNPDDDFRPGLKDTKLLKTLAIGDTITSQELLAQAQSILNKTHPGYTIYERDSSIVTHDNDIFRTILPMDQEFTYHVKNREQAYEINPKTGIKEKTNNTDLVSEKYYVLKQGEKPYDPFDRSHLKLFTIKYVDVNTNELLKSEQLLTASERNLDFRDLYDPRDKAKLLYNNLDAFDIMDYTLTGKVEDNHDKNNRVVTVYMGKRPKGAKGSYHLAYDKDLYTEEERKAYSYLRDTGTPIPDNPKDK

[17] = cells

Chain of Voltage-dependent T-type calcium channel subunit alpha-1H (O95180 whole entry): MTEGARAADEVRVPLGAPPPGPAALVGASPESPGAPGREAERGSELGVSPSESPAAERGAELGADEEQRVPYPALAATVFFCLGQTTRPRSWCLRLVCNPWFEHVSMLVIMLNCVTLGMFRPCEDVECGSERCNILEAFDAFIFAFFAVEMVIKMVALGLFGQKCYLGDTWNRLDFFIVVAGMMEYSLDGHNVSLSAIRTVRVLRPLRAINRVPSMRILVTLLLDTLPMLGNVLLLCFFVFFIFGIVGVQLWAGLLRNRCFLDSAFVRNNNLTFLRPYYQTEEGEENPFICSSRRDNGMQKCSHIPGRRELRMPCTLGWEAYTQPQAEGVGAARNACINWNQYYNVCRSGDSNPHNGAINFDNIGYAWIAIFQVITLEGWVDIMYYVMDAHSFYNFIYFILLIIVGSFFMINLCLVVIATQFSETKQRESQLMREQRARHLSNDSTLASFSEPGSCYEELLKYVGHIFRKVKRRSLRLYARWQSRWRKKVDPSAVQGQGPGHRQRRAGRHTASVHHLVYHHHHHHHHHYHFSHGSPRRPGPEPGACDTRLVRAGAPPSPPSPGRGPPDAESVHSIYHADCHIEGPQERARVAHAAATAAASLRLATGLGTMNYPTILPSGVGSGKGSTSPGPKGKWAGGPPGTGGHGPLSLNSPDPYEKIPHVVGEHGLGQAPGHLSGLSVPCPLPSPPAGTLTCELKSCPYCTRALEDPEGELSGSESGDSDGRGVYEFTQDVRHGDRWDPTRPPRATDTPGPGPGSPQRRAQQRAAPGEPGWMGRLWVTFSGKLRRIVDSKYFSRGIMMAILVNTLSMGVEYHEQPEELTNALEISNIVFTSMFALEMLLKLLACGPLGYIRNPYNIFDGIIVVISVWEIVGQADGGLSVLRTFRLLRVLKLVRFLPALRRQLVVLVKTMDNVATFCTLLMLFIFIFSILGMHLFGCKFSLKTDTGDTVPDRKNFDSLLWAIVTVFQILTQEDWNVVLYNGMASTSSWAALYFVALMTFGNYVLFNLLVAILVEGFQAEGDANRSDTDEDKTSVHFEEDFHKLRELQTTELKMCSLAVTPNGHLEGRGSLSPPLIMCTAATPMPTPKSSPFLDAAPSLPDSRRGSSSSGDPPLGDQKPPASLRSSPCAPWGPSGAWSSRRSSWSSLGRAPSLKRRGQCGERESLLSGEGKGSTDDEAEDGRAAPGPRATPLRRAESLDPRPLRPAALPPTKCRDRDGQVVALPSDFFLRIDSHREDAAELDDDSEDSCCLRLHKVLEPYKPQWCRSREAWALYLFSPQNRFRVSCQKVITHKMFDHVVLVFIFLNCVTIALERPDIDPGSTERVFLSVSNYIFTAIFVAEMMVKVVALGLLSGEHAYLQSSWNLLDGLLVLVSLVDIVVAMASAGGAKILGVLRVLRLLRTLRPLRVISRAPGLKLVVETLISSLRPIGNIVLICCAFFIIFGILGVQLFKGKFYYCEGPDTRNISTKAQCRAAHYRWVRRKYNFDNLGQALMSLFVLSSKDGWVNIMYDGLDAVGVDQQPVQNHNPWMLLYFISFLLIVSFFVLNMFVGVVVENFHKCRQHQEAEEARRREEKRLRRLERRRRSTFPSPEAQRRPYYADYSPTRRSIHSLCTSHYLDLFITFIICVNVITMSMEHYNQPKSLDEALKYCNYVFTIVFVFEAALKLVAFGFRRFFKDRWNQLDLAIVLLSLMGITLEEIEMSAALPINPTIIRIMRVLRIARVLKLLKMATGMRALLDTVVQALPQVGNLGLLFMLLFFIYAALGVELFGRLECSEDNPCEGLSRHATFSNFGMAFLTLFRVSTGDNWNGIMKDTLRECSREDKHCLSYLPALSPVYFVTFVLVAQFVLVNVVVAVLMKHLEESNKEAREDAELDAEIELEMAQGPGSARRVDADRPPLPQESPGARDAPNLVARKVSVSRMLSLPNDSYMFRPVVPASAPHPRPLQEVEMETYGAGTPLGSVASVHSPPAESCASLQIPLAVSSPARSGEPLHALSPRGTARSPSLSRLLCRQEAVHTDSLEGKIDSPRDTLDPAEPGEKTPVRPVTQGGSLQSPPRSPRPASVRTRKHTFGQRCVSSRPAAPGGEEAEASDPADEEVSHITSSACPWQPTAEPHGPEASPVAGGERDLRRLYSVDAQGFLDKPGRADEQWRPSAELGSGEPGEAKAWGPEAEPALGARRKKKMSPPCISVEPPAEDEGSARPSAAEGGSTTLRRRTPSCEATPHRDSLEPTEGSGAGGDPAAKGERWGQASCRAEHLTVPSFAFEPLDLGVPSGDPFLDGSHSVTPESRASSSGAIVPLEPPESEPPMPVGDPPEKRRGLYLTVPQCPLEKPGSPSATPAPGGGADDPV
Chain of Genome polyprotein (P29990 2492-3391 limits assumed): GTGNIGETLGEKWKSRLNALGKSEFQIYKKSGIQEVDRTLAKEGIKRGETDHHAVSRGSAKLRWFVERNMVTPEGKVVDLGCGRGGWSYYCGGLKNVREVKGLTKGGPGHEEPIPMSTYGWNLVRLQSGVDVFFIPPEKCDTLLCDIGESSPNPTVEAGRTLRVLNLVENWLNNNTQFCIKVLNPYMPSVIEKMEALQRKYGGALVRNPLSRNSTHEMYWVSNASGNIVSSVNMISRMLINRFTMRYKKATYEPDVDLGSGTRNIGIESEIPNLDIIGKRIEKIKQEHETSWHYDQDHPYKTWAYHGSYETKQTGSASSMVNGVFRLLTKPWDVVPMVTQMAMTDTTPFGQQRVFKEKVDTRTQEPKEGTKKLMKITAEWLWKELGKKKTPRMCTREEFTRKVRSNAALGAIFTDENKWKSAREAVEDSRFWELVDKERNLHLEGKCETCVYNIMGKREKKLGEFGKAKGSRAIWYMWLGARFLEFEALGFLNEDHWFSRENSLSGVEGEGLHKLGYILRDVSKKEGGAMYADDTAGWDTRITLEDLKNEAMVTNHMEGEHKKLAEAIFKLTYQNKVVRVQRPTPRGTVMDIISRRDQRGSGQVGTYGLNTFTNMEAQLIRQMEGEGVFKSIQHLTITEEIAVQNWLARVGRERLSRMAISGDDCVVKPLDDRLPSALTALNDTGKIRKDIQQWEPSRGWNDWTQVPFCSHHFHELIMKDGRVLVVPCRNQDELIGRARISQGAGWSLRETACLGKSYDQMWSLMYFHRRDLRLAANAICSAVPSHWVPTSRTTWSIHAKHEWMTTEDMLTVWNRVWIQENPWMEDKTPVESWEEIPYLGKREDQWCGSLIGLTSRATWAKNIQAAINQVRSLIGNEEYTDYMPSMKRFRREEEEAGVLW
Chain of Cytochrome P450 2C9 (P11712 whole entry): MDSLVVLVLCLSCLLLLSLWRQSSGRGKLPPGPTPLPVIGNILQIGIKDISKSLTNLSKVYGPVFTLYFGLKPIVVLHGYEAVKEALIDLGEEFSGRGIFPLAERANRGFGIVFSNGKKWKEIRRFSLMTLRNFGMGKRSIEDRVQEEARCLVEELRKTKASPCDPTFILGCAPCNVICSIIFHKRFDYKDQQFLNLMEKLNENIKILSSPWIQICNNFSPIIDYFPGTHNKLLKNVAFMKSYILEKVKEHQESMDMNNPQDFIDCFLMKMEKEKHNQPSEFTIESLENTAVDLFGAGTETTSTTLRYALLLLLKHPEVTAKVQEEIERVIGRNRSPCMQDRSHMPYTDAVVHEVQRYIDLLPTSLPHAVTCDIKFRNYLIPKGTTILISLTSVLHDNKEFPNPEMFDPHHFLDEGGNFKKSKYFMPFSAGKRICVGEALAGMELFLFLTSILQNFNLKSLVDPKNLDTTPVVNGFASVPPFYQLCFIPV

## COC(=O)c1ccc(N2NC(=O)/C(=C/c3cc(OC)c(OC)c(OC)c3)C2=O)cc1
[1]
  IC50: 46.6 µM (active)

## Cc1ccc(OCCSC2=NN2c2cc(C)nc(N)n2)cc1
[2]
  IC50: 14.8 µM (active)

## CC[C@H]1OC(=O)[C@H](C)[C@@H](O[C@H]2C[C@@](C)(OC)[C@@H](O)[C@H](C)O2)[C@H](C)[C@@H](O[C@@H]2O[C@H](C)C[C@H](N(C)C)[C@H]2O)[C@](C)(OC)C[C@@H](C)C(=O)[C@H](C)[C@@H](O)[C@]1(C)O [CLARITHROMYCIN]
[3]
  EC50: < 0.06 µM (active)
[4]
  EC50: < 0.06 µM (active)
[5]
  AC50: 23.1 µM (active)

## Cc1ccc(C)c(N2CCN(C(=O)Cc3cn(C)c4ccccc34)CC2)c1
[6]
  EC50: 9.19 µM (active)

## Cc1cc(Oc2nc3c(C)cccn3c(=O)c2/C=C(\C#N)S(=O)(=O)c2ccc(Cl)cc2)ccc1Cl
[7]
  EC50: 7.18 µM (active)
[8]
  EC50: 6.7 µM (active)
[5]
  AC50: 28.9 µM (active)

## CCn1cc(C(=O)O)c(=O)c2cc(F)c(N3CCNCC3)nc21 [ENOXACIN]
[9]
  AC50: inconclusive
[5]
  AC50: 1.07 µM (active)

## Cc1ncoc1C(=O)Nc1ccc(Oc2ccccc2)cc1
[2]
  IC50: 13.2 µM (active)

## O=C(Nc1cc(Cl)ccc1C(=O)O)c1cocn1
[10]
  IC50: > 25 µM (inactive)

## Cc1cc(C)nc(SCc2nnc(SCC(=O)Nc3ccc(C)c(C)c3)n2Cc2ccco2)n1
[6]
  EC50: 4.05 µM (active)

## O=C(CSc1nnc(-c2ccncc2)n1-c1ccc(F)cc1)NC(=O)NCc1ccco1
[11]
  IC50: 8.38 µM (active)

## Cc1ccccc1-c1nc(CN2CCC(C(=O)O)CC2)c(C)o1
[5]
  AC50: 20.8 µM (active)

## CCCC(NC(=O)Cc1c(C)c2cc3c(C)c(C)oc3c(C)c2oc1=O)C(=O)N[C@@H](Cc1ccccc1)C(=O)O (stereo partly drawn)
[11]
  IC50: 3.57 µM (active)

## CCCN(CCC)c1nc(O)nc(N(CCC)CCC)n1
[2]
  IC50: 3.63 µM (active)

## Oc1ccccc1Nc1nc(NCC2CCCO2)c2ccccc2n1 (stereo not drawn)
[12]
  CC50: 30.4 µM (active)

## COc1cc2c(cc1NC(=O)COC(=O)[C@@H](NC(=O)c1ccccc1)C(C)C)oc1ccccc12
[5]
  AC50: 33.8 µM (active)

## COc1ccc(NC(=O)c2ccccc2SCc2ccccc2)cc1
[10]
  IC50: > 25 µM (inactive)

## O=C(/C=C/c1ccc2c(c1)OCO2)NCCSCc1ccc(Cl)cc1Cl
[6]
  EC50: 4.94 µM (active)

## O=C(Nc1cccc([N+](=O)[O-])c1)Nc1cccc([N+](=O)[O-])c1
[11]
  IC50: 8.46 µM (active)

## CCOc1cc(CNc2ccccc2)cc(Br)c1OCC(=O)NC(C)(C)C
[6]
  EC50: 15.4 µM (active)

## COc1ccc2c(c1)CN(c1cc(Cl)ccc1C(=O)O)C2=O
[10]
  IC50: > 25 µM (inactive)

## CC(C)(C)Cc1nc2ccccc2n1CCc1ccccc1
[6]
  EC50: 7.13 µM (active)
[13]
  EC50: 1.06 µM (active)
[14]
  EC50: > 260 µM (inactive)

## Nc1sc(-c2ccccc2)cc1C(=O)N/N=C/c1ccc(Cl)cc1
[15]
  CC50: > 50 µM (active)
[3]
  EC50: 3.46 µM (active)
[16]
  EC50: > 150 µM (not active)
[4]
  EC50: 4.54 µM (active)
[17]
  IC50: 35.7 µM (active)

## COc1ccc(C(=O)Nc2cc(Cl)ccc2-c2nnn[nH]2)cc1
[10]
  IC50: 10.9 µM (active)

## O=C(O)c1ccc(Cl)c(S(=O)(=O)Nc2ccccc2C(=O)Nc2ccc(Cl)cc2)c1
[1]
  IC50: 34 µM (active)

## COc1ccc(C(=O)Nc2cc(Br)ccc2C(=O)O)cc1
[10]
  IC50: 6.94 µM (active)

## CCCC(C(=O)O)N1C(=O)/C(=C2\C(=O)N(C)c3ccccc32)SC1=S (stereo not drawn)
[1]
  IC50: 30.4 µM (active)

## O=C(CCS(=O)(=O)c1ccc(Br)cc1)NC1CCCCCC1
[11]
  IC50: 7.42 µM (active)
